B1: papain: Non-specific cysteine protease, Sigma-Aldrich P4762 (protein, UniProt P00784 134-345, looked up)
Papain: IPEYVDWRQKGAVTPVKNQGSCGSCWAFSAVVTIEGIIKIRTGNLNEYSEQELLDCDRRSYGCNGGYPWSALQLVAQYGIHYRNTYPYEGVQRYCRSREKGPYAAKTDGVRQVQPYNEGALLYSIANQPVSVVLEAAGKDFQLYRGGIFVGPCGNKVDHAVAAVGYGPNYILIKNSWGTGWGENGYIRIKRGTGNSYGVCGLYTSSFYPVKN

Legend:
BSA [1] = biological target: T1, BSA (Bos taurus, UniProt P02769); test: Real-time monitoring of chymotrypsin digestion of BSA using epicocconone; format: biochemical, bovine; conditions: bicine pH 7.8, 30° C., chymotrypsin 1:30
T1 construct: purchased Sigma-Aldrich A3059
T1 sequence (P02769 25-607): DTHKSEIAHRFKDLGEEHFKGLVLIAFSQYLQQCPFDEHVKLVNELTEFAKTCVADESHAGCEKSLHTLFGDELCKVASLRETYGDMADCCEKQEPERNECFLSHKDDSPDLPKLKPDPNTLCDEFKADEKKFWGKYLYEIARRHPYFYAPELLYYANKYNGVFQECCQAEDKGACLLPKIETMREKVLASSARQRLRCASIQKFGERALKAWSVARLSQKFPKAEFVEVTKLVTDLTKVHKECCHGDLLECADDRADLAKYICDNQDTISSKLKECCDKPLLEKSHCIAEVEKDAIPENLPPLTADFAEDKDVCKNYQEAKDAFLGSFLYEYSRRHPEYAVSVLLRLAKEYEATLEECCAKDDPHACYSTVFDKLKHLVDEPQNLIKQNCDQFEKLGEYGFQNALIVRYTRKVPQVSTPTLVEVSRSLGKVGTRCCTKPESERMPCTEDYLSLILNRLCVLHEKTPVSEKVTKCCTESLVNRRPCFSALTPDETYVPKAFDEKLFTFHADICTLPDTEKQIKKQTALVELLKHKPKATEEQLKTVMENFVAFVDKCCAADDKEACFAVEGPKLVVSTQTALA
Description: • 1. Chymotrypsin digestion was carried out in bicine buffer. • 2. BSA was prepared in 10 mg/mL in 50 mM bicine buffer. • 3. One hundred microliter of the BSA sample was used for chymotrypsin digestion.
• 1. The BSA sample (100 μL) was reduced by adding 5 μL of DTT stock and heating (80° C.) for 10 min. • 2. The sample was alkylated by adding the iodoacetamide (4 μL) stock at room temperature for 45 min-1 hr. • 3. The remaining iodoacetamide of the sample was neutralized by adding DTT (20 μL) and incubating room temp for 45 min-1 hr.
• 1. The reduced and denatured BSA sample from 2.2 was diluted 10-fold in 50 mM bicine buffer (25 μL+225 μL bicine buffer). BSA molar concentration was calculated to be approx. 6 μM. • 2. One hundred microliter of the sample (step 1) was prepared in duplicates and added to a microtiter plate. Controls included a bicine-based digestion buffer, a chymotrypsin sample only and an undigested BSA sample (no chymotrypsin). • 3. Epicocconone stock solution was diluted 100-fold in 50 mM bicine and 100 μL added to each well. The final concentration epicocconone was 12 μM. At this point in time, it required approximately 10 min to get appropriate FluoStar setting conditions. • 4. 2 μL of CaCl2 was added • 5. […] Fluorescence development was monitored in real time every 2 minutes up to 6 hours using FluoStar (Ex/Em=540/630−12). […]

BSA [2] = biological target: T1, BSA; test: SDS-PAGE validation of BSA proteolysis in the presence of different fluorophores (Example 7); format: biochemical, bovine; conditions: after 120 minutes
Text: The normalised data were used for Prism analysis for obtaining the rate constants. In each case, the protein with fluorophore (open squares) is fitted to a single phase exponential decay (Y=span*exp(−kX)+plateau) and the value for k used as the fixed value for k1 in a two phase exponential decay (Y=span1*exp(−k1X)+span2*exp(−k2X)+plateau) for the protein plus papain (open circles). Through this method it was possible to measure the rate constants for hydrolysis and predict the time point for complete hydrolysis. […] It can be seen from this figure that the bands associated with the protein have disappeared after 120 minutes and that only a faint band for residual papain or trypsin can be seen. In some cases there are also some larger peptide fragments remaining after digestion that are resistant to further hydrolysis.

Molecule	apparent first order rate constant (BSA [1])	digestion of BSA by SDS-PAGE (BSA [2])
chymotrypsin	0.0447 min⁻¹	–
B1	–	complete digestion

From US20090111104A1, “Method for Monitoring Hydrolytic Activity” (Fluorotechnics Pty Limited, priority 2005, published 2009)
